In assay [1] the test system is A375.S2 cells. In words: Binding and internalization of liposomes at 37° C., confocal microscopy. Conditions: 37° C. for 10 min, washed, incubated 1 hour. The assay is classed as cell-based, human. As to the method:
(§1) Several human tumor cells bearing human αVβ3/5 integrins were used: (1) A375.S2, human melanoma cell line; (2) MDA-MB-231, Human Breast Carcinoma Cell line; (3) A2780, Human Ovarian Carcinoma Cell line; (4) HT29, Human Colon Carcinoma Cell line; (5) A549, Human Lung Carcinoma Cell line.
Liposomes were prepared as described in Example 1, except in two aspects. First, Dextran Alexa Fluor 488 (Cat No. D-22910, from Molecular Probes) was included in the hydration buffer during the passive encapsulation step of liposome formation, and after the sizing step dialysis was used to remove any unencapsulated Alexa. Second, instead of inserting Fab-PEG-lipid into the liposome bilayer, maleimide-PEG-lipid (MalPEG-DSPE) was inserted into the liposome bilayer at approximately 800 MalPeg-DSPE per liposome at 60° C. for 1 Hr. The insertion step was followed by the conjugation of the Fab to the reactive end of the lipopolymer. The appropriate amount of Fab was added to the MalPEG-DSPE inserted liposomes to achieve a 90:1 anti-alphaV-Fab targeting ligands per liposome ratio. These liposomes were used in the binding and internalization studies described below. […]
A375.S2 cells were harvested by scraping and then resuspended to obtain individualized cells and rejuvenated for 1 hour, at 37° C. About 1 million cells of each tumor type were counted and distributed into individual centrifugation tubes. […]

Assay [2] has as its system A2780, Human Ovarian Carcinoma Cell line. The experiment in a line: Cytotoxicity assay (cell viability, CellTiter 96). The class given is cell-based. Also on record: unit not given beside the values. Conditions: ovarian cancer A2780; 10 minutes at 37° C., washed, plated 3 and 6 days. As to the method: as §1
(§2) Cell viability was assayed using the CellTiter 96 AQueous One Solution Cell Proliferation Assay from Promega (Cat No. G3581). A Spectra Max 250 plate reader was used, with a reading wavelength of 490 nm. Confocal Microscopy was done using a Nikon, Eelipse, E600. An Eppendorf centrifuge 5804 was used.
(§3) Liposomes bearing 15:1, 40:1, 90:1 and 180:1 alpha-integrin Fab targeting ligands per liposome and containing doxorubicin were prepared as described in Example 1 and 2. These targeted-liposomes were used in the cytotoxicity assay using the various cells lines, as described below.
(§4) Cells were harvested by scraping and then resuspended at 37° C. for 1 hour to obtain individualized cells. About 1 million cells of each tumor type were counted and placed in individual centrifugation tubes. The tubes were centrifuged to obtain a cell pellet. The cells were then incubated with the targeted liposome compositions containing doxorubicin for 10 minutes at 37° C., with mild shaking, 140 rpm. Cells were treated with a quantity of liposomes sufficient to give a doxorubicin concentration of 40 μg/mL. […]

The test system of assay [3] is A375.S2, human melanoma cell line. The experiment in a line: Cytotoxicity assay (cell viability, CellTiter 96). The assay is classed as cell-based. Also on record: unit not given beside the values. As to conditions: 10 minutes at 37° C., washed, plated 3 and 6 days. The protocol:
as §1, §2, §3, §4

For assay [4], the system named is murine melanoma cell line, B16F10. In words: Cytotoxicity assay (cell viability, CellTiter 96), negative control. Also on record: unit not given beside the values. The assay is classed as cell-based. Conditions: Murine melanoma B16-F10; 10 minutes at 37° C., washed, plated 3 and 6 days.

Bounds are passed on as bounds.

For `COc1cccc2c1C(=O)c1c(O)c3c(c(O)c1C2=O)C[C@@](O)(C(=O)CO)C[C@@H]3O[C@H]1C[C@H](N)[C@H](O)[C@H](C)O1` [free dox, doxorubicin], the “binding and internalization into A375.S2 cells” value in assay [1] was “drug internalization is evident”. The IC50 of doxorubicin in assay [2], in assay [3] and in assay [4] was over 200 each time.

For the origin of these results see US8138315B2, “Anti-alpha V immunoliposome compositions, methods and uses” (Centocor Ortho Biotech Inc., priority 2007, dated 2012).
